Results: patent US20020002144A1, “Methods and compositions for bisubstrate inhibitors of acetyltransferases” (The Government of the United States of America, Department …, priority 1999, published 2002)
Each block holds one molecule with its values, some of them ahead of it.

What was measured:
[1] = system: arylamine N-acetyltransferase (E.C. 2.3.1.5); conditions: adverse reactions reported to result from acetylation of the drug; cited from earlier work
AANAT [2] = molecular target: T1, AANAT (Rattus norvegicus, UniProt Q64666); assay: AANAT activity in treated pinealocytes; type: cell-based; conditions: Experiment 2
T1 construct: Pinealocytes were prepared from rat pineal glands by trypsinization; endogenous in cells; host or cells: primary pinealocytes from male Sprague-Dawley rats
Procedure: AANAT assay: The specific activity of the AANAT preparation was determined from measurement of the activity of the enzyme and amount of protein in a preparation. Activity was assayed by incubating the enzyme with ^3H-acetyl CoA (0.5 mM, 4 μCi/μmole) and tryptamine hydrochloride (1 mM), bovine serum albumin (0.5 mg/ml) and the enzyme in total volume of 100 μl of sodium phosphate (0.1M, pH 6.8) (6,7). The incubation was terminated by extracting the product ^3H-acetyltryptamine with chloroform (1 ml). The chloroform phase was washed sequentially with 200 μl of the sodium phosphate buffer and twice with 200 μl of NaOH (1N). The radioactivity in 400 μl of the chloroform phase was determined following evaporation of chloroform under vacuum. Protein was measured by optical density at 280 nm and by dye binding using the Brandford procedure. Pineal cell preparation and treatment: Pinealocytes were prepared from rat pineal glands by trypsinization as previously described (10). The cells were suspended in Dulbecco's modified Eagle medium (DMEM) containing 10% fetal calf serum and maintained (37° C.) for 18 h in a gas mixture of 95% air and 5% CO2. During this 18 hour period, some cells were treated, as indicated in Table 2 experiment 2, in aliquots of 50,000 cells/300 μl and washed prior to addition of fresh medium and further treatment. In some cases, as in Table 3, experiment 1, cells were not aliquoted until after 18 hours of control incubation and in these cases, aliquots of cells (50,000 cells/300 μl) were prepared and treated with drugs. Drugs were prepared in 100×concentrated solutions in water or dimethyl sulfoxide. The duration of the drug treatment was 5 h. At the end of treatment period, cells were collected by centrifugation (2 min, 10,000 g) and the medium was removed and stored. Cell pellets were frozen immediately in dry ice and stored at −80° C. until determination of AANAT activity. The supernatant collected was used for determination of melatonin.

rat pinealocytes [3] = assay: Melatonin production by norepinephrine-treated pinealocytes (radioimmunoassay of medium); type: cell-based; conditions: for Melatonin production: Experiment 1, 18-24 hours; for Melatonin (18-23 hr): Experiment 2
Procedure: (§1) Pineal cell preparation and treatment: Pinealocytes were prepared from rat pineal glands by trypsinization as previously described (10). The cells were suspended in Dulbecco's modified Eagle medium (DMEM) containing 10% fetal calf serum and maintained (37° C.) for 18 h in a gas mixture of 95% air and 5% CO2. During this 18 hour period, some cells were treated, as indicated in Table 2 experiment 2, in aliquots of 50,000 cells/300 μl and washed prior to addition of fresh medium and further treatment. In some cases, as in Table 3, experiment 1, cells were not aliquoted until after 18 hours of control incubation and in these cases, aliquots of cells (50,000 cells/300 μl) were prepared and treated with drugs. Drugs were prepared in 100×concentrated solutions in water or dimethyl sulfoxide. The duration of the drug treatment was 5 h.
At the end of treatment period, cells were collected by centrifugation (2 min, 10,000 g) and the medium was removed and stored. Cell pellets were frozen immediately in dry ice and stored at −80° C. until determination of AANAT activity. The supernatant collected was used for determination of melatonin.
Melatonin analysis. Melatonin in the medium was determined by a radioimmunoassay as described previously (11,12). Briefly, melatonin was extracted from 300 μl of medium by vortexing with 1 ml of methylene chloride. After centrifugation, 700 μl of the organic phase was collected and evaporated to dryness. The residue was reconstituted in 500 μl of assay buffer (0.01M phosphate buffer, pH 7.5, containing 0.1% gelatin).
An ultraspecific melatonin antiserum from CIDtech Research Inc. (Mississauga, Ontario Canada) was used for the melatonin radioimmunoassay. Aliquots of extracted melatonin samples were diluted to 500 μl with assay buffer. 100 μl of melatonin antiserum and 50 μl of [^3H]melatonin (˜2000 cpm, at 45.5 Ci/mmol) were then added. After mixing, the tubes were incubated at 4° C. overnight. To separate the bound from the free [^3H] melatonin, 650 μl of saturated ammonium sulphate were added and the samples were incubated at 4° C. for 1 hr. The bound [^3H]melatonin was collected in a protein pellet by centrifugation (4,000 g×30 min) and re-dissolved in 550 μl of deionized water. 500 μl was then used for scintillation counting. Both inter- and intra-assay variability were less than 10%.
N-Bromoacetyltryptamine treatment of rat pinealocytes inhibits melatonin production. Experiments were conducted to determine if N-bromoacetyltryptamine could inhibit production of melatonin. This was done using rat pinealocytes in which melatonin production was elevated by treatment with norepinephrine, which acts by elevating the activity of AANAT.

AANAT [4] = molecular target: T2, AANAT (Ovis aries, UniProt Q29495); assay: AANAT assay with aqueous extracts of AANAT/CoA/N-bromoacetyltryptamine pre-incubations; type: biochemical; conditions: 20 μl extract in 100 μl AANAT assay
T2 construct: made in house
Procedure: AANAT assay: The specific activity of the AANAT preparation was determined from measurement of the activity of the enzyme and amount of protein in a preparation. Activity was assayed by incubating the enzyme with ^3H-acetyl CoA (0.5 mM, 4 μCi/μmole) and tryptamine hydrochloride (1 mM), bovine serum albumin (0.5 mg/ml) and the enzyme in total volume of 100 μl of sodium phosphate (0.1M, pH 6.8) (6,7). The incubation was terminated by extracting the product ^3H-acetyltryptamine with chloroform (1 ml). The chloroform phase was washed sequentially with 200 μl of the sodium phosphate buffer and twice with 200 μl of NaOH (1N). The radioactivity in 400 μl of the chloroform phase was determined following evaporation of chloroform under vacuum. Protein was measured by optical density at 280 nm and by dye binding using the Brandford procedure.
Incubations to study formation of CoA-S-N-acetyltryptamine.—Bromoacetyltryptamine (20 μM) was incubated (37° C., 30 min) with coenzyme A (20 μM), bovine serum albumin (0.5 mg/ml) and the enzyme in a total volume of 100 μl of Tris HCl (50 mM, pH 7.4) and the incubation was terminated by adding chloroform (1 ml) and vortexing. The aqueous phase was then removed. Samples of the aqueous phase from each chloroform extraction were analyzed by mass spectroscopy and for inhibitory activity in an AANAT assay.
This conclusion was supported by the biochemical evidence from experiments in which the aqueous extracts analyzed above were incubated with a fresh preparation of AANAT in an AANAT assay. Inhibitory activity of the extract was determined.

rat pinealocytes [5] = assay: Cytotoxicity to pinealocytes (response to norepinephrine after wash out); type: cell-based; conditions: 18 hour treatment with 0.5 μM, medium changed, then norepinephrine
Procedure: as §1
The effect of an 18 hour treatment with 0.5 μM N-bromoacetyltryptamine was examined. Following the 18 hour treatment, the medium was changed and fresh medium was added. Following this treatment, cells responded to norepinephrine treatment with an increase in melatonin production and AANAT activity.

[6] = Treatment I DMSO (0-18 hr), Treatment II NE 10 μM (18-23 hr)
[7] = Treatment I BAT (0.5 μM) (0-18 hr), wash out, Treatment II NE (10 μM) (18-23 hr)
[8] = Treatment I DMSO (0-18 hr), Treatment II NE 10 μM + BAT (0.5 μM) (18-23 hr)

T2 sequence (Q29495 whole entry): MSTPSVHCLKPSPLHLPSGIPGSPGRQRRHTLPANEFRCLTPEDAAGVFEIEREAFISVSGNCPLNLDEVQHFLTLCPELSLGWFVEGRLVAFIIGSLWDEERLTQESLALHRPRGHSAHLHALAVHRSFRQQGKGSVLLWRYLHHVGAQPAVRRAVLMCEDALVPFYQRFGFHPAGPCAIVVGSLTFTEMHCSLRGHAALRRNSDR
T1 sequence (Q64666 whole entry): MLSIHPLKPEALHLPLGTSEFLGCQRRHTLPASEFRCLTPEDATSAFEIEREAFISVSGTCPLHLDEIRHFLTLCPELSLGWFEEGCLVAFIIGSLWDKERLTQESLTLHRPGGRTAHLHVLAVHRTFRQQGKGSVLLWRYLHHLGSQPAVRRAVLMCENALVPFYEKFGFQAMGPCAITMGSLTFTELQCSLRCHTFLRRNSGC

Structure (SMILES): Cc1cc(C)nc(NS(=O)(=O)c2ccc(N)cc2)n1 [Sulfamethazine]
Adverse Drug Reaction Reported [1]: Hematological/Gastrointestinal

Structure (SMILES): Nc1ccc(S(=O)(=O)c2ccc(N)cc2)cc1 [Dapsone]
Adverse Drug Reaction Reported [1]: Hematological

Structure (SMILES): CCN(CC)CCNC(=O)c1ccc(N)cc1 [Procainamide]
Adverse Drug Reaction Reported [1]: Lupus, uncontrolled arrhythmias

Structure (SMILES): NC[C@H](O)c1ccc(O)c(O)c1 [Norepinephrine, reference compound]
AANAT (23 hr) (AANAT [2]; [6]): 0.89 ± 0.10 μmol/h/105 cells
Melatonin production (rat pinealocytes [3]; Norepinephrine (10 μM) alone): 12.43 ± 2.00 pmol/100,000 cells
Melatonin (18-23 hr) (rat pinealocytes [3]; [6]): 10.44 ± 1.07 pmole/10^5 cells

AANAT (23 hr) (AANAT [2]; [7]): 0.86 ± 0.06 μmol/h/105 cells
AANAT (23 hr) (AANAT [2]; [8]): 0.48 ± 0.05 μmol/h/105 cells
remaining activity at 20 µM (AANAT [4]; Complete pre-assay reaction (AANAT + CoA 20 μM + N-bromoacetyltryptamine 20 μM, 37° C., 30 min), read-out: AANAT Activity (% of control)): 38%
AANAT Activity (% of control) (AANAT [4]; pre-assay reaction Minus CoA): 107%
AANAT Activity (% of control) (AANAT [4]; pre-assay reaction Zero time (not incubated)): 110%
AANAT Activity (% of control) (AANAT [4]; pre-assay reaction with Boiled enzyme): 104%
Structure (SMILES): O=C(CBr)NCCc1c[nH]c2ccccc12 [N-Bromoacetyltryptamine]
cytotoxicity (rat pinealocytes [5]): not cytotoxic
production of melatonin (rat pinealocytes [3]; 5 hour treatment with 0.1, 0.5 or 1 μM, norepinephrine-treated rat pinealocytes): markedly reduced
Melatonin production (rat pinealocytes [3]; N-Bromoacetyltryptamine (1 μM) alone): 0.65 ± 0.05 pmol/100,000 cells
Melatonin production (rat pinealocytes [3]; Norepinephrine (10 μM) + N-Bromoacetyltryptamine (0.1 μM)): 4.55 ± 0.04 pmol/100,000 cells
Melatonin production (rat pinealocytes [3]; Norepinephrine (10 μM) + N-Bromoacetyltryptamine (1 μM)): 0.95 ± 0.25 pmol/100,000 cells
Melatonin (18-23 hr) (rat pinealocytes [3]; Treatment I BAT (0.5 μM) (0-18 hr), wash out, Treatment II Control (18-23 hr)): 1.78 ± 0.14 pmole/10^5 cells
Melatonin (18-23 hr) (rat pinealocytes [3]; [7]): 12.22 ± 2.90 pmole/10^5 cells
Melatonin (18-23 hr) (rat pinealocytes [3]; [8]): 1.88 ± 0.82 pmole/10^5 cells

Structure (SMILES): CCC1(c2ccc(N)cc2)CCC(=O)NC1=O (centres unmarked) [Aminoglutethamide]
Adverse Drug Reaction Reported [1]: Adrenal insufficiency

Structure (SMILES): NNc1nncc2ccccc12 [Hydralazine]
Adverse Drug Reaction Reported [1]: Lupus, uncontrolled hypertension

Structure (SMILES): NNC(=O)c1ccncc1 [Isoniazid]
Adverse Drug Reaction Reported [1]: Peripheral neuropathy, liver
